Experimental data as given in patent US5037637A, “Antibacterial antiplaque, anticalculus oral composition” (priority 1989, dated 1991).

Assays:
[1] = Human clinical tests, reduction of plaque formation; type: in vivo
[2] = tested on: four dental plaque organisms; experiment: Antibacterial effect on the four dental plaque organisms (summary in words); type: cell-based; conditions: solutions without TCHE
Experimental: Slurries and solutions described below are prepared to determine effectiveness in terms of minimum inhibitory concentration (MIC) of various antibacterial agents against a variety of oral bacterial organisms implicated in formation of plaque and leading to gingivitis on dental surfaces. Soft plaque contains about 1.7×10^11 organism/gm. (net weight). The antibacterial agents are admixed with anionic materials, particularly anionic surface active agent often commonly employed in oral compositions and polyphosphate anticalculus agent.
Minimum inhibitory concentration (MIC) of antibacterial agent is used to evaluate the efficacy of the agent in vitro. […] The smaller the MIC value the greater is the efficacy of the antibacterial agent to inhibit the growth of the bacteria. The in vitro MIC data is related to the efficacy of the dentifrice in vivo since retention and release of antibacterial agent into the oral cavity after toothbrushing is in the range of mcg/ml.

Bacteriodes gingivalis = experiment: Antibacterial activity of dentifrice extracts, inhibition of growth; type: cell-based
Experimental: The dentifrice described in Example 3A is compared with the same composition except without any TCHE and with added 0.50 parts of water. Aqueous extracts of each dentifrice are prepared as follows: 50 ml of distilled water is added to 1.0 gm of each dentifrice, mixed well for a couple of hours with stirring bar and centrifuged, after which the supernatant is collected as aqueous extract. Antibacterial activity of the dentifrice extracts are evaluated on Bacteriodes gingivalis.

[3] = Adsorption of TCHE to saliva coated tooth mineral hydroxyapatite; parameters: species or system human; conditions: for % of TCHE Adsorbed to Coated HA: 37°, 3 hours
Experimental: The adsorption to and release from tooth minerals for antiplaque/ antitartar efficacy of agents is assessed by adsorption of antibacterial agent to saliva coated tooth mineral hydroxyapatite in the presence and the absence of pyrophosphate (soluble tetrasodium pyrophosphate)/Gantrez/NaF.
200 mg. of hydroxyapatite (HA) is treated with human saliva for 2 hours. The excess saliva is washed with a buffer and saliva coated HA is used for adsorption studies. Various concentrations of TCHE in SLS or in SLS/pyrophosphate/Gantrez/NaF are mixed with the coated HA and incubated at 37° for 3 hours under continuous agitation. At the end of incubation period, the mixtures are centrifuged, HA separated and the amounts of TCHE adsorbed determined by estimating TCHE in the supernatant at […] in a Gilford spectrophotometer. The amounts adsorbed are calculated by the difference between the amount added and the amount left in the supernatant after the incubation with coated HA. The table below summarizes the data.

CC(C)(C)CC(C)(C)c1ccc(OCCOCC[N+](C)(C)Cc2ccccc2)cc1 [BTC, benzthonium chloride]
reducing plaque formation ([1]; 0.075% BTC and 1% pyrophosphate dissolved in water): is not
reducing plaque formation ([1]; 0.075% BTC dissolved in water): effective in reducing plaque formation

[H]/N=C(\N/C(=N/[H])NCCCCCCNC(=N)NC(=N)Nc1ccc(Cl)cc1)Nc1ccc(Cl)cc1 [CH, chlorhexidine digluconate]
reducing plaque formation ([1]; 0.1% CH and 1% sodium N-lauroyl sarcosinate dissolved in water): is not
reducing plaque formation ([1]; 0.1% CH dissolved in water): effective in reducing plaque formation

CCCCCCCCCCCCOS(=O)(=O)[O-].[Na+] [SLS, sodium lauryl sulfate]
antibacterial effect [2]: ineffective

Oc1cc(Cl)ccc1Oc1ccc(Cl)cc1Cl [TCHE, 2,4,4'-trichloro-2'-hydroxydiphenyl ether]
compatibility in dentifrice composition containing anionic surfactant plus pyrophosphate with Gantrez and NaF (Bacteriodes gingivalis; from growth inhibition by dentifrice extracts): compatible
inhibition at 5 µg/mL (Bacteriodes gingivalis; read-out: Inhibition of Growth of Bacteriodes Gingivalis): 100%
% of TCHE Adsorbed to Coated HA ([3]; 0.005% TCHE in 1% SLS, 0.5% Gantrez, 2% pyrophosphate/0.24% NaF): 80%
% of TCHE Adsorbed to Coated HA ([3]; 0.005% TCHE in 1% SLS): 80%
% of TCHE Adsorbed to Coated HA ([3]; 0.01% TCHE in 1% SLS, 0.5% Gantrez, 2% pyrophosphate/0.24% NaF): 85%
% of TCHE Adsorbed to Coated HA ([3]; 0.01% TCHE in 1% SLS): 85%
% of TCHE Adsorbed to Coated HA ([3]; 0.015% TCHE in 1% SLS, 0.5% Gantrez, 2% pyrophosphate/0.24% NaF): 86%
% of TCHE Adsorbed to Coated HA ([3]; 0.015% TCHE in 1% SLS): 85%
% of TCHE Adsorbed to Coated HA ([3]; 0.02% TCHE in 1% SLS, 0.5% Gantrez, 2% pyrophosphate/0.24% NaF): 87%
% of TCHE Adsorbed to Coated HA ([3]; 0.02% TCHE in 1% SLS): 88%
effect of addition of pyrophosphate/Gantrez/NaF on adsorption of TCHE to saliva coated tooth minerals ([3]; with vs without pyrophosphate/Gantrez/NaF): does not impair adsorption
